Bounds are passed on as bounds.

The target of this test is Aurora B/INCENP (Homo sapiens, UniProt Q96GD4). Put plainly: Determination of inhibition of AIK: Aurora B/INCENP direct fluorescence polarization (IMAP) assay. Type of test: biochemical. The note with it: 10 uM ATP, 0.8 nM Aurora B/INCENP; values given as bins; read-out: IC50 of Exemplified Compounds Against AIK B. On the technique in general: Fluorescence polarisation rises when a labelled molecule tumbles more slowly, as on binding a larger partner.
Chain of Aurora B/INCENP (Q96GD4 whole entry): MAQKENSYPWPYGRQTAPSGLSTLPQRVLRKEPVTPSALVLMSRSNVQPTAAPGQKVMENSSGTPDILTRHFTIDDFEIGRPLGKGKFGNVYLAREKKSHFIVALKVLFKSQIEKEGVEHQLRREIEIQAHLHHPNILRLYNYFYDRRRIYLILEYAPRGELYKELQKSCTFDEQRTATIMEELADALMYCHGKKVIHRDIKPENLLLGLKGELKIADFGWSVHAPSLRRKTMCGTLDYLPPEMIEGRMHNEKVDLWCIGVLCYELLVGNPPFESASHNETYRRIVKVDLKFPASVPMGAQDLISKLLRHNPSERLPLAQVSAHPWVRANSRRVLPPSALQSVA
Chain of Aurora B/INCENP (Q9NQS7 whole entry partner): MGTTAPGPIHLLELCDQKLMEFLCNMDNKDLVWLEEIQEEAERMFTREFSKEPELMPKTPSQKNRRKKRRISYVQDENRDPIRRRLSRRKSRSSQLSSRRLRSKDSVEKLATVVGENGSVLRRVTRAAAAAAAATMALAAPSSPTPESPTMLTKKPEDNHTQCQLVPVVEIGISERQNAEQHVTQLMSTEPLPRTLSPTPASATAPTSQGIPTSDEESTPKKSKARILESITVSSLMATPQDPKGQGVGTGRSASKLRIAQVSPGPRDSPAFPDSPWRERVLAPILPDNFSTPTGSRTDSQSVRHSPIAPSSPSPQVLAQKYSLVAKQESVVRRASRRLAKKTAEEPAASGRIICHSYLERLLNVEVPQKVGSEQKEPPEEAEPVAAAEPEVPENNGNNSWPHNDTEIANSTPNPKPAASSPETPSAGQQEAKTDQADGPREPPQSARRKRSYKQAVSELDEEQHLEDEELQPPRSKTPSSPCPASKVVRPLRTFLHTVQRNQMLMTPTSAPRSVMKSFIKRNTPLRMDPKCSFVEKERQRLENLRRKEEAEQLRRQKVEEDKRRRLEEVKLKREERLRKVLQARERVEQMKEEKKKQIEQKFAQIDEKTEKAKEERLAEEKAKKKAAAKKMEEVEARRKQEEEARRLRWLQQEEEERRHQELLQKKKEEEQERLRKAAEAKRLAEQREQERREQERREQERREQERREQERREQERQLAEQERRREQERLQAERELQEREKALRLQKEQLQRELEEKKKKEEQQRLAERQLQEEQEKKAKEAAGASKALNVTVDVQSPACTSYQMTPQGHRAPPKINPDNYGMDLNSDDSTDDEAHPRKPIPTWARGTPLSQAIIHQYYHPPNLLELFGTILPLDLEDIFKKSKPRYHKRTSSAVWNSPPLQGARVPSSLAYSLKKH
One may read the IC50 as the midpoint of a concentration-inhibition curve. For the molecule `CCS(=O)(=O)c1cccc(-c2ccc(OCC3CCN(C)CC3)c3[nH]c4ncc(F)cc4c23)c1` [Compound 287, 5-(3-(ethylsulfonyl)phenyl)-3-fluoro-8-((1-methylpiperidin-4-yl)methoxy)-9H-pyrido[2,3-b]indole], the half-maximal inhibitory concentration (IC50) lay in the range of 5.6 to 8.5 nM.

In the case of `CCS(=O)(=O)c1cccc(-c2ccc(OCCCO)c3[nH]c4ncc(Cl)cc4c23)c1` [Compound 291, 3-(3-chloro-5-(3-(ethylsulfonyl)phenyl)-9H-pyrido[2,3-b]indol-8-yloxy)propan-1-ol], the IC50 is under 4 nM.

With `CCN(CCO)CCCOc1ccc(-c2cccc(S(=O)(=O)CC)c2)c2c1[nH]c1ncc(Cl)cc12` [Compound 293, 2-((3-(3-chloro-5-(3-(ethylsulfonyl)phenyl)-9H-pyrido[2,3-b]indol-8-yloxy)propyl)(ethyl)amino)ethanol], the IC50 is under 4 nM.

Consider `CCN(CCCOc1ccc(-c2cccc(S(=O)(=O)CC)c2)c2c1[nH]c1ncc(Cl)cc12)CCOP(=O)(O)O` [Compound 294, 2-((3-(3-chloro-5-(3-(ethylsulfonyl)phenyl)-9H-pyrido[2,3-b]indol-8-yloxy)propyl)(ethyl)amino)ethyl dihydrogen phosphate], for which the IC50 is under 4 nM.

As for `CCN(CCO)CCCOc1ccc(-c2cccc(S(=O)(=O)C3CC3)c2)c2c1[nH]c1ncc(Cl)cc12` [Compound 298, 2-((3-(3-chloro-5-(3-(cyclopropylsulfonyl)phenyl)-9H-pyrido[2,3-b]indol-8-yloxy)propyl)(ethyl)amino)ethanol], the half-inhibitory concentration (IC50) is under 4 nM.

Take `Cc1cnc2[nH]c3c(OCCCN4CCC(O)CC4)ccc(-c4cccc(S(=O)(=O)C5CC5)c4)c3c2c1` [Compound 300, 1-(3-(5-(3-(cyclopropylsulfonyl)phenyl)-3-methyl-9H-pyrido[2,3-b]indol-8-yloxy)propyl)piperidin-4-ol]: the IC50 was under 4 nM.

For the molecule `CCS(=O)(=O)c1cccc(-c2ccc(OCCCn3ccnc3)c3[nH]c4ncc(Cl)cc4c23)c1` [Compound 301, 8-(3-(1H-imidazol-1-yl)propoxy)-3-chloro-5-(3-(ethylsulfonyl)phenyl)-9H-pyrido[2,3-b]indole], the IC50 is under 4 nM.

As to `CCS(=O)(=O)c1cccc(-c2ccc(OCCCN(C)CCO)c3[nH]c4ncc(C)cc4c23)c1` [Compound 305, 2-((3-(5-(3-(ethylsulfonyl)phenyl)-3-methyl-9H-pyrido[2,3-b]indol-8-yloxy)propyl)(methyl)amino)ethanol], the IC50 was under 4 nM.

Turning to `CCS(=O)(=O)c1cccc(-c2ccc(OCCCN(C)CCOP(=O)(O)O)c3[nH]c4ncc(C)cc4c23)c1` [Compound 308, 2-((3-(5-(3-(ethylsulfonyl)phenyl)-3-methyl-9H-pyrido[2,3-b]indol-8-yloxy)propyl)(methyl)amino)ethyl dihydrogen phosphate], the IC50 is under 4 nM.

In the case of `Cc1cnc2[nH]c3c(OC[C@@H](O)CN(C)C)ccc(-c4cccc(S(=O)(=O)C5CC5)c4)c3c2c1` [Compound 313, (S)-1-(5-(3-(cyclopropylsulfonyl)phenyl)-3-methyl-9H-pyrido[2,3-b]indol-8-yloxy)-3-(dimethylamino)propan-2-ol], the IC50 was under 4 nM.

For `Cc1cnc2[nH]c3c(OC[C@H](CN(C)C)OP(=O)(O)O)ccc(-c4cccc(S(=O)(=O)C5CC5)c4)c3c2c1` [Compound 314, (S)-1-(5-(3-(cyclopropylsulfonyl)phenyl)-3-methyl-9H-pyrido[2,3-b]indol-8-yloxy)-3-(dimethylamino)propan-2-yl dihydrogen phosphate], the IC50 was 4 to 5.5 nM.

For the molecule `Cc1cnc2[nH]c3c(OC[C@@H](CN(C)C)OP(=O)(O)O)ccc(-c4cccc(S(=O)(=O)C5CC5)c4)c3c2c1` [Compound 315, (R)-1-(5-(3-(cyclopropylsulfonyl)phenyl)-3-methyl-9H-pyrido[2,3-b]indol-8-yloxy)-3-(dimethylamino)propan-2-yl dihydrogen phosphate], the IC50 was under 4 nM.

Regarding `Cc1cc(Nc2ccc(OCC3CCN(C)CC3)c3[nH]c4ncc(Cl)cc4c23)ccc1N1CCN(C)CC1` [Compound 316, 3-chloro-N-(3-methyl-4-(4-methylpiperazin-1-yl)phenyl)-8-((1-methylpiperidin-4-yl)methoxy)-9H-pyrido[2,3-b]indol-5-amine], the IC50 was over 13 nM.

As for `CCN(CCO)CCOc1ccc(-c2cccc(S(=O)(=O)C3CC3)c2)c2c1[nH]c1ncc(C)cc12` [Compound 318, 2-((2-(5-(3-(cyclopropylsulfonyl)phenyl)-3-methyl-9H-pyrido[2,3-b]indol-8-yloxy)ethyl)(ethyl)amino)ethanol], the IC50 fell in the range of 8.6 to 13 nM.

Consider `CN(CCO)CCOc1ccc(-c2cccc(S(=O)(=O)C3CC3)c2)c2c1[nH]c1ncc(Cl)cc12` [Compound 319, 2-((2-(3-chloro-5-(3-(cyclopropylsulfonyl)phenyl)-9H-pyrido[2,3-b]indol-8-yloxy)ethyl)(methyl)amino)ethanol], for which the IC50 was under 4 nM.

Turning to `Cc1cnc2[nH]c3c(OCCN4CCC(O)CC4)ccc(-c4cccc(S(=O)(=O)C5CC5)c4)c3c2c1` [Compound 322, 1-(2-(5-(3-(cyclopropylsulfonyl)phenyl)-3-methyl-9H-pyrido[2,3-b]indol-8-yloxy)ethyl)piperidin-4-ol], the IC50 was under 4 nM.

For the molecule `CCN(CCO)CCOc1ccc(-c2cccc(S(=O)(=O)C3CC3)c2)c2c1[nH]c1ncc(Cl)cc12` [Compound 323, 2-((2-(3-chloro-5-(3-(cyclopropylsulfonyl)phenyl)-9H-pyrido[2,3-b]indol-8-yloxy)ethyl)(ethyl)amino)ethanol], the IC50 is 5.6 to 8.5 nM.

Take `O=S(=O)(c1cccc(-c2ccc(OCCN3CCC(O)CC3)c3[nH]c4ncc(Cl)cc4c23)c1)C1CC1` [Compound 325, 1-(2-(3-chloro-5-(3-(cyclopropylsulfonyl)phenyl)-9H-pyrido[2,3-b]indol-8-yloxy)ethyl)piperidin-4-ol]: the IC50 was under 4 nM.

`CCS(=O)(=O)c1cccc(-c2ccc(OCCN3CCC(O)CC3)c3[nH]c4ncc(Cl)cc4c23)c1` [Compound 327, 1-(2-(3-chloro-5-(3-(ethylsulfonyl)phenyl)-9H-pyrido[2,3-b]indol-8-yloxy)ethyl)piperidin-4-ol]: the IC50 fell in the range of 8.6 to 13 nM.

On to `CCS(=O)(=O)c1cccc(-c2ccc(OCCn3ccnc3)c3[nH]c4ncc(C)cc4c23)c1` [Compound 333, 8-(2-(1H-imidazol-1-yl)ethoxy)-5-(3-(ethylsulfonyl)phenyl)-3-methyl-9H-pyrido[2,3-b]indole], for which the IC50 was over 13 nM.

As to `Cc1cnc2[nH]c3c(OCCCN(CCO)CC(F)(F)F)ccc(-c4cccc(S(=O)(=O)C5CC5)c4)c3c2c1` [Compound 339, 2-((3-(5-(3-(cyclopropylsulfonyl)phenyl)-3-methyl-9H-pyrido[2,3-b]indol-8-yloxy)propyl)(2,2,2-trifluoroethyl)amino)ethanol], the half-inhibitory concentration (IC50) was over 13 nM.

For `CCS(=O)(=O)c1cccc(-c2ccc(OCCCN(CCO)CC(F)(F)F)c3[nH]c4ncc(C)cc4c23)c1` [Compound 340, 2-((3-(5-(3-(ethylsulfonyl)phenyl)-3-methyl-9H-pyrido[2,3-b]indol-8-yloxy)propyl)(2,2,2-trifluoroethyl)amino)ethanol], the IC50 was over 13 nM.

Turning to `Cc1cnc2[nH]c3c(OCCCN(CCO)CC(F)F)ccc(-c4cccc(S(=O)(=O)C5CC5)c4)c3c2c1` [Compound 341, 2-((3-(5-(3-(cyclopropylsulfonyl)phenyl)-3-methyl-9H-pyrido[2,3-b]indol-8-yloxy)propyl)(2,2-difluoroethyl)amino)ethanol], the IC50 was over 13 nM.

For the molecule `CCS(=O)(=O)c1cccc(-c2ccc(OCCCN(CCOP(=O)(O)O)CC(F)(F)F)c3[nH]c4ncc(C)cc4c23)c1` [Compound 343, 2-((3-(5-(3-(ethylsulfonyl)phenyl)-3-methyl-9H-pyrido[2,3-b]indol-8-yloxy)propyl)(2,2,2-trifluoroethyl)amino)ethyl dihydrogen phosphate], the IC50 is under 4 nM.

As for `Cc1cnc2[nH]c3c(OCC4CCN(CCO)CC4)ccc(-c4cccc(S(=O)(=O)C5CC5)c4)c3c2c1` [Compound 345, 2-(4-((5-(3-(cyclopropylsulfonyl)phenyl)-3-methyl-9H-pyrido[2,3-b]indol-8-yloxy)methyl)piperidin-1-yl)ethanol], the IC50 is under 4 nM.

In the case of `Cc1cnc2[nH]c3c(OCC4CCN(CCOP(=O)(O)O)CC4)ccc(-c4cccc(S(=O)(=O)C5CC5)c4)c3c2c1` [Compound 346, 2-(4-((5-(3-(cyclopropylsulfonyl)phenyl)-3-methyl-9H-pyrido[2,3-b]indol-8-yloxy)methyl)piperidin-1-yl)ethyl dihydrogen phosphate], the IC50 is under 4 nM.

In the case of `Cc1cnc2[nH]c3c(OCCCN4CCC(COP(=O)(O)O)CC4)ccc(-c4cccc(S(=O)(=O)C5CC5)c4)c3c2c1` [Compound 347, (1-(3-(5-(3-(cyclopropylsulfonyl)phenyl)-3-methyl-9H-pyrido[2,3-b]indol-8-yloxy)propyl)piperidin-4-yl)methyl dihydrogen phosphate], the IC50 was under 4 nM.

As for `CCS(=O)(=O)c1cccc(-c2ccc(OCCCOP(=O)(O)O)c3[nH]c4ncc(C)cc4c23)c1` [Compound 350, 3-(5-(3-(ethylsulfonyl)phenyl)-3-methyl-9H-pyrido[2,3-b]indol-8-yloxy)propyl dihydrogen phosphate], the IC50 is under 4 nM.

For `Cc1cnc2[nH]c3c(OC[C@@H]4CNCCO4)ccc(-c4cccc(S(=O)(=O)C5CC5)c4)c3c2c1` [Compound 358, (S)-2-((5-(3-(cyclopropylsulfonyl)phenyl)-3-methyl-9H-pyrido[2,3-b]indol-8-yloxy)methyl)morpholine], the IC50 was under 4 nM.

`Cc1cnc2[nH]c3c(OC[C@H]4CNCCO4)ccc(-c4cccc(S(=O)(=O)C5CC5)c4)c3c2c1` [Compound 359, (R)-2-((5-(3-(cyclopropylsulfonyl)phenyl)-3-methyl-9H-pyrido[2,3-b]indol-8-yloxy)methyl)morpholine]: the IC50 is under 4 nM.

On to `Cc1cnc2[nH]c3c(OC[C@@H]4CN(CCO)CCO4)ccc(-c4cccc(S(=O)(=O)C5CC5)c4)c3c2c1` [Compound 363, (S)-2-(2-((5-(3-(cyclopropylsulfonyl)phenyl)-3-methyl-9H-pyrido[2,3-b]indol-8-yloxy)methyl)morpholino)ethanol], for which the IC50 was 4 to 5.5 nM.

The record behind these values is patent US20090312288A1 (TAKEDA PHARMACEUTICAL COMPANY LIMITED, priority 2008, published 2009).
